# Results published in patent US20120029187A1, “HALOALKYLSULFONANILIDE DERIVATIVE” (Nissan Chemical Industries, Ltd., priority 2009, published 2012).
# Assays:
# Format in all cases: in vivo
# barnyardgrass [1] = test: Test Example 1: herbicidal effects in preemergence treatment under submerged conditions; settings: dose 2.52 g/a
# Outline: (§1)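 Scoring 0 (<5% mortality) to 5 (≥90%) was done three weeks after preemergence application to the water surface of submerged (4 cm) alluvial soil, doses given as g per are. Weeds were seeded and 2.5-leaf rice transplanted on the treatment day; greenhouse at 25–30 °C.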
# bulrush [2] = test: as above; settings: dose 2.52 g/a
# Outline: as §1
# ducksalad [3] = test: as above; settings: dose 2.52 g/a
# Outline: as §1
# transplanted rice = test: Test Example 1: preemergence treatment under submerged conditions, effect on crop; settings: dose 2.52 g/a
# Outline: as §1
# barnyardgrass [4] = test: Test Example 2: herbicidal effects during the vegetation period under submerged conditions; settings: treatment during the vegetation period under submerged conditions; dose 2.52 g/a
# Outline: (§2)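 Barnyardgrass, bulrush and ducksalad were co-sown in alluvial soil flooded to 4 cm and grown in a greenhouse at 25 to 30° C. At the 1- or 2-leaf stage, water-diluted emulsifiable concentrates went onto the water surface at set doses (g/a). Herbicidal effect was scored three weeks later on a graded scale.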
# bulrush [5] = test: as above; settings: treatment during the vegetation period under submerged conditions; dose 2.52 g/a
# Outline: as §2
# ducksalad [6] = test: as above; settings: treatment during the vegetation period under submerged conditions; dose 2.52 g/a
# Outline: as §2
# Italian ryegrass [7] = test: Test Example 3: herbicidal effects in soil treatment; settings: dose 3.2 g/a
# Outline: (§3)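 Seeds were sown in sterilized diluvial soil and covered with about 1.5 cm of soil. Compounds, formulated as emulsifiable concentrates and diluted with water, were sprayed evenly over the soil surface at set doses in g/a. Herbicidal effect was scored on a rating scale three weeks later.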
# barnyardgrass [8] = test: as above; settings: dose 3.2 g/a
# Outline: as §3
# beadstraw [9] = test: as above; settings: dose 3.2 g/a
# Outline: as §3
# common chickweed [10] = test: as above; settings: dose 3.2 g/a
# Outline: as §3
# common lambsquater [11] = test: as above; settings: dose 3.2 g/a
# Outline: as §3
# common ragweed [12] = test: as above; settings: dose 3.2 g/a
# Outline: as §3
# giant foxtail [13] = test: as above; settings: dose 3.2 g/a
# Outline: as §3
# large crabgrass [14] = test: as above; settings: dose 3.2 g/a
# Outline: as §3
# redroot pigweed [15] = test: as above; settings: dose 3.2 g/a
# Outline: as §3
# velvetleaf [16] = test: as above; settings: dose 3.2 g/a
# Outline: as §3
# water foxtail [17] = test: as above; settings: dose 3.2 g/a
# Outline: as §3
# Italian ryegrass [18] = test: Test Example 4: herbicidal effect in foliage treatment; settings: dose 3.2 g/a
# Outline: (§4)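 Herbicidal effect was rated on an evaluation scale three weeks after treatment. Plants had been raised 14 days at 25 to 30° C in sterilized diluvial soil, then received foliar sprays of emulsifiable concentrate diluted in water at predetermined doses expressed as g per are.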
# barnyardgrass [19] = test: as above; settings: dose 3.2 g/a
# Outline: as §4
# beadstraw [20] = test: as above; settings: dose 3.2 g/a, three weeks after application
# Outline: as §4
# common chickweed [21] = test: as above; settings: dose 3.2 g/a
# Outline: as §4
# common lambsquater [22] = test: as above; settings: dose 3.2 g/a
# Outline: as §4
# common ragweed [23] = test: as above; settings: dose 3.2 g/a
# Outline: as §4
# giant foxtail [24] = test: as above; settings: dose 3.2 g/a
# Outline: as §4
# large crabgrass [25] = test: as above; settings: dose 3.2 g/a
# Outline: as §4
# posumbu knotweed = test: as above; settings: dose 3.2 g/a
# Outline: as §4
# redroot pigweed [26] = test: as above; settings: dose 3.2 g/a
# Outline: as §4
# velvetleaf [27] = test: as above; settings: dose 3.2 g/a
# Outline: as §4
# water foxtail [28] = test: as above; settings: dose 3.2 g/a
# Outline: as §4
# [29] = three weeks after the application
compound,measurement,setting,value
O=C1CC2(CCC2)OCN1Cc1ccccc1NS(=O)(=O)C(F)(F)F [II-61],"A: barnyardgrass, herbicidal effect (evaluation scale 0-5)",barnyardgrass [1],5 (mortality of 90% or above (nearly complete death))
same,"B: bulrush, herbicidal effect (evaluation scale 0-5)",bulrush [2],5 (mortality of 90% or above (nearly complete death))
same,"C: ducksalad, herbicidal effect (evaluation scale 0-5)",ducksalad [3],5 (mortality of 90% or above (nearly complete death))
same,"a: transplanted rice, effect on crop (evaluation scale 0-5)",transplanted rice,2 (mortality of at least 20% and less than 40%)
same,"A: barnyardgrass, herbicidal effect (evaluation scale 0-5)",barnyardgrass [4],5 (mortality of 90% or above (nearly complete death))
same,"B: bulrush, herbicidal effect (evaluation scale 0-5)",bulrush [5],5 (mortality of 90% or above (nearly complete death))
same,"C: ducksalad, herbicidal effect (evaluation scale 0-5)",ducksalad [6],5 (mortality of 90% or above (nearly complete death))
same,"H: Italian ryegrass, herbicidal effect (evaluation scale 0-5)",Italian ryegrass [7],5 (mortality of 90% or above (nearly complete death))
same,"A: barnyardgrass, herbicidal effect (evaluation scale 0-5)",barnyardgrass [8],5 (mortality of 90% or above (nearly complete death))
same,"O: beadstraw, herbicidal effect (evaluation scale 0-5)",beadstraw [9],5 (mortality of 90% or above (nearly complete death))
same,"N: common chickweed, herbicidal effect (evaluation scale 0-5)",common chickweed [10],5 (mortality of 90% or above (nearly complete death))
same,"L: common lambsquater, herbicidal effect (evaluation scale 0-5)",common lambsquater [11],5 (mortality of 90% or above (nearly complete death))
same,"J: common ragweed, herbicidal effect (evaluation scale 0-5)",common ragweed [12],4 (mortality of at least 70% and less than 90%)
same,"E: giant foxtail, herbicidal effect (evaluation scale 0-5)",giant foxtail [13],5 (mortality of 90% or above (nearly complete death))
same,"D: large crabgrass, herbicidal effect (evaluation scale 0-5)",large crabgrass [14],5 (mortality of 90% or above (nearly complete death))
same,"K: redroot pigweed, herbicidal effect (evaluation scale 0-5)",redroot pigweed [15],5 (mortality of 90% or above (nearly complete death))
same,"I: velvetleaf, herbicidal effect (evaluation scale 0-5)",velvetleaf [16],5 (mortality of 90% or above (nearly complete death))
same,"G: water foxtail, herbicidal effect (evaluation scale 0-5)",water foxtail [17],5 (mortality of 90% or above (nearly complete death))
same,"H: Italian ryegrass, herbicidal effect",Italian ryegrass [18]; three weeks after application,4 (mortality of at least 70% and less than 90%)
same,"A: barnyardgrass, herbicidal effect",barnyardgrass [19]; three weeks after application,5 (mortality of 90% or above (nearly complete death))
same,"O: beadstraw, herbicidal effect",beadstraw [20],3 (mortality of at least 40% and less than 70%)
same,"N: common chickweed, herbicidal effect",common chickweed [21]; three weeks after application,4 (mortality of at least 70% and less than 90%)
same,"L: common lambsquater, herbicidal effect",common lambsquater [22]; three weeks after application,3 (mortality of at least 40% and less than 70%)
same,"J: common ragweed, herbicidal effect",common ragweed [23]; three weeks after application,3 (mortality of at least 40% and less than 70%)
same,"E: giant foxtail, herbicidal effect",giant foxtail [24]; three weeks after application,5 (mortality of 90% or above (nearly complete death))
same,"D: large crabgrass, herbicidal effect",large crabgrass [25]; three weeks after application,4 (mortality of at least 70% and less than 90%)
same,"M: posumbu knotweed, herbicidal effect",posumbu knotweed; three weeks after application,4 (mortality of at least 70% and less than 90%)
same,"K: redroot pigweed, herbicidal effect",redroot pigweed [26]; three weeks after application,0 (mortality of less than 5% (almost ineffective))
same,"I: velvetleaf, herbicidal effect",velvetleaf [27]; three weeks after application,5 (mortality of 90% or above (nearly complete death))
same,"G: water foxtail, herbicidal effect",water foxtail [28]; three weeks after application,5 (mortality of 90% or above (nearly complete death))
CCC(=O)N(c1ccccc1CN1C(=O)CC(C)(C)OC1C)S(=O)(=O)C(F)(F)F (stereo not shown) [II-73],"A: barnyardgrass, herbicidal effect (evaluation scale 0-5)",barnyardgrass [1],5 (mortality of 90% or above (nearly complete death))
same,"B: bulrush, herbicidal effect (evaluation scale 0-5)",bulrush [2],5 (mortality of 90% or above (nearly complete death))
same,"C: ducksalad, herbicidal effect (evaluation scale 0-5)",ducksalad [3],5 (mortality of 90% or above (nearly complete death))
same,"a: transplanted rice, effect on crop (evaluation scale 0-5)",transplanted rice,3 (mortality of at least 40% and less than 70%)
same,"A: barnyardgrass, herbicidal effect (evaluation scale 0-5)",barnyardgrass [4],5 (mortality of 90% or above (nearly complete death))
same,"B: bulrush, herbicidal effect (evaluation scale 0-5)",bulrush [5],5 (mortality of 90% or above (nearly complete death))
same,"C: ducksalad, herbicidal effect (evaluation scale 0-5)",ducksalad [6],5 (mortality of 90% or above (nearly complete death))
same,"H: Italian ryegrass, herbicidal effect (evaluation scale 0-5)",Italian ryegrass [7],5 (mortality of 90% or above (nearly complete death))
same,"A: barnyardgrass, herbicidal effect (evaluation scale 0-5)",barnyardgrass [8],5 (mortality of 90% or above (nearly complete death))
same,"O: beadstraw, herbicidal effect (evaluation scale 0-5)",beadstraw [9],4 (mortality of at least 70% and less than 90%)
same,"N: common chickweed, herbicidal effect (evaluation scale 0-5)",common chickweed [10],0 (mortality of less than 5% (almost ineffective))
same,"L: common lambsquater, herbicidal effect (evaluation scale 0-5)",common lambsquater [11],0 (mortality of less than 5% (almost ineffective))
same,"J: common ragweed, herbicidal effect (evaluation scale 0-5)",common ragweed [12],3 (mortality of at least 40% and less than 70%)
same,"E: giant foxtail, herbicidal effect (evaluation scale 0-5)",giant foxtail [13],5 (mortality of 90% or above (nearly complete death))
same,"D: large crabgrass, herbicidal effect (evaluation scale 0-5)",large crabgrass [14],5 (mortality of 90% or above (nearly complete death))
same,"K: redroot pigweed, herbicidal effect (evaluation scale 0-5)",redroot pigweed [15],0 (mortality of less than 5% (almost ineffective))
same,"I: velvetleaf, herbicidal effect (evaluation scale 0-5)",velvetleaf [16],5 (mortality of 90% or above (nearly complete death))
same,"G: water foxtail, herbicidal effect (evaluation scale 0-5)",water foxtail [17],5 (mortality of 90% or above (nearly complete death))
same,"H: Italian ryegrass, herbicidal effect",Italian ryegrass [18]; [29],5 (mortality of 90% or above (nearly complete death))
same,"A: barnyardgrass, herbicidal effect",barnyardgrass [19]; [29],5 (mortality of 90% or above (nearly complete death))
same,"N: common chickweed, herbicidal effect",common chickweed [21]; [29],2 (mortality of at least 20% and less than 40%)
same,"L: common lambsquater, herbicidal effect",common lambsquater [22]; [29],0 (mortality of less than 5% (almost ineffective))
same,"J: common ragweed, herbicidal effect",common ragweed [23]; [29],2 (mortality of at least 20% and less than 40%)
same,"E: giant foxtail, herbicidal effect",giant foxtail [24]; [29],4 (mortality of at least 70% and less than 90%)
same,"D: large crabgrass, herbicidal effect",large crabgrass [25]; [29],4 (mortality of at least 70% and less than 90%)
same,"M: posumbu knotweed, herbicidal effect",posumbu knotweed; [29],4 (mortality of at least 70% and less than 90%)
same,"K: redroot pigweed, herbicidal effect",redroot pigweed [26]; [29],0 (mortality of less than 5% (almost ineffective))
same,"I: velvetleaf, herbicidal effect",velvetleaf [27]; [29],5 (mortality of 90% or above (nearly complete death))
same,"G: water foxtail, herbicidal effect",water foxtail [28]; [29],5 (mortality of 90% or above (nearly complete death))
CCOC(=O)N(c1ccccc1CN1COC2(CCCC2)C(Br)C1=O)S(=O)(=O)C(F)(F)F (stereo not shown) [II-77],"A: barnyardgrass, herbicidal effect (evaluation scale 0-5)",barnyardgrass [1],5 (mortality of 90% or above (nearly complete death))
same,"B: bulrush, herbicidal effect (evaluation scale 0-5)",bulrush [2],5 (mortality of 90% or above (nearly complete death))
same,"C: ducksalad, herbicidal effect (evaluation scale 0-5)",ducksalad [3],5 (mortality of 90% or above (nearly complete death))
same,"a: transplanted rice, effect on crop (evaluation scale 0-5)",transplanted rice,0 (mortality of less than 5% (almost ineffective))
same,"A: barnyardgrass, herbicidal effect (evaluation scale 0-5)",barnyardgrass [4],0 (mortality of less than 5% (almost ineffective))
same,"B: bulrush, herbicidal effect (evaluation scale 0-5)",bulrush [5],5 (mortality of 90% or above (nearly complete death))
same,"C: ducksalad, herbicidal effect (evaluation scale 0-5)",ducksalad [6],4 (mortality of at least 70% and less than 90%)
same,"herbicidal effect, H: Italian ryegrass",Italian ryegrass [7],1 (mortality of at least 5% and less than 20%)
same,"herbicidal effect, A: barnyardgrass",barnyardgrass [8],4 (mortality of at least 70% and less than 90%)
same,"herbicidal effect, O: beadstraw",beadstraw [9],0 (mortality of less than 5% (almost ineffective))
same,"herbicidal effect, N: common chickweed",common chickweed [10],4 (mortality of at least 70% and less than 90%)
same,"herbicidal effect, L: common lambsquater",common lambsquater [11],5 (mortality of 90% or above (nearly complete death))
same,"herbicidal effect, J: common ragweed",common ragweed [12],0 (mortality of less than 5% (almost ineffective))
same,"herbicidal effect, E: giant foxtail",giant foxtail [13],1 (mortality of at least 5% and less than 20%)
same,"herbicidal effect, D: large crabgrass",large crabgrass [14],5 (mortality of 90% or above (nearly complete death))
same,"herbicidal effect, K: redroot pigweed",redroot pigweed [15],4 (mortality of at least 70% and less than 90%)
same,"herbicidal effect, I: velvetleaf",velvetleaf [16],5 (mortality of 90% or above (nearly complete death))
same,"herbicidal effect, G: water foxtail",water foxtail [17],3 (mortality of at least 40% and less than 70%)
same,"H: Italian ryegrass, herbicidal effect",Italian ryegrass [18]; [29],0 (mortality of less than 5% (almost ineffective))
same,"A: barnyardgrass, herbicidal effect",barnyardgrass [19]; [29],4 (mortality of at least 70% and less than 90%)
same,"N: common chickweed, herbicidal effect",common chickweed [21]; [29],3 (mortality of at least 40% and less than 70%)
same,"L: common lambsquater, herbicidal effect",common lambsquater [22]; [29],4 (mortality of at least 70% and less than 90%)
same,"J: common ragweed, herbicidal effect",common ragweed [23]; [29],3 (mortality of at least 40% and less than 70%)
same,"E: giant foxtail, herbicidal effect",giant foxtail [24]; [29],1 (mortality of at least 5% and less than 20%)
same,"D: large crabgrass, herbicidal effect",large crabgrass [25]; [29],1 (mortality of at least 5% and less than 20%)
same,"M: posumbu knotweed, herbicidal effect",posumbu knotweed; [29],3 (mortality of at least 40% and less than 70%)
same,"K: redroot pigweed, herbicidal effect",redroot pigweed [26]; [29],3 (mortality of at least 40% and less than 70%)
same,"I: velvetleaf, herbicidal effect",velvetleaf [27]; [29],3 (mortality of at least 40% and less than 70%)
same,"G: water foxtail, herbicidal effect",water foxtail [28]; [29],5 (mortality of 90% or above (nearly complete death))
